From paper PMC8838534, “Unprecedented Epimerization of an Azithromycin Analogue: Synthesis, Structure and Biological Activity of 2′-Dehydroxy-5″-Epi-Azithromycin” (Molecules, 2022)
In brackets after ≈: the same amount, converted by molar mass. Several values for one entry are separate records, joined by “and”; a condition that tells them apart may be missing. Equal values may be shown once.

How the values were obtained:
[1] = system: Escherichia coli (ATCC25922); experiment: Antimicrobial activity, CLSI broth microdilution MIC; format: cell-based
Description: (§1) The Clinical and Laboratory Standards (CLSI) recommended procedure (Document M7-[…], Methods for Dilution Susceptibility Tests for Bacteria that Grow Aerobically) by broth microdilution was used to determine the antimicrobial activity of compounds against Escherichia coli (ATCC25922), Staphylococcus aureus (ATCC13709), Streptococcus pneumoniae (ATCC49619), Streptococcus pyogenes (ATCC700294), Moraxella catarrhalis (ATCC23246) and Haemophilus influenzae (ATCC49247). The minimum inhibitory concentration (MIC) is determined as the lowest concentration of compound that inhibited visible growth.

[2] = system: Staphylococcus aureus (ATCC13709); experiment: as above; format: cell-based; conditions: read-out: MIC S. aureus
Description: as §1

[3] = system: Haemophilus influenzae (ATCC49247); experiment: as above; format: cell-based; conditions: read-out: MIC H. influenzae
Description: as §1

[4] = system: Streptococcus pyogenes (ATCC700294); experiment: as above; format: cell-based; conditions: read-out: MIC S. pyogenes
Description: as §1

[5] = system: Streptococcus pneumoniae (ATCC49619); experiment: as above; format: cell-based; conditions: read-out: MIC S. penumoniae
Description: as §1

[6] = system: Moraxella catarrhalis (ATCC23246); experiment: as above; format: cell-based
Description: as §1

[7] = system: neutrophil accumulation in BALF of cigarette-smoke-challenged mice; experiment: Cigarette-smoke-induced pulmonary inflammation; format: in vivo, mouse; conditions: oral dosing 2 h prior smoke challenge on each smoke day
[8] = Pharmacokinetics in mouse; format: in vivo, Balb/c mice
Experimental: (§2) Pharmacokinetic profiles were determined in male Balb/c mice and CD Sprague-Dawley rats (Charles River Laboratories, Germany), following single oral (p.o.) and single intravenous (i.v.) bolus administration. The compound was administered at a dose of […] i.v. and 10 mg/kg p.o. Blood was obtained by serial blood sampling from the tail vein over a range of time points up to 30 h postdose. Samples were extracted by protein precipitation and subjected to quantitative analysis by LC-MS/MS using compound-specific mass transitions. Drug concentration−time profiles were generated and noncompartmental PK analysis used to generate estimates of half-life, clearance, volume of distribution, and oral bioavailability.

Pharmacokinetics in rat = format: in vivo, Sprague Dawley rats
Experimental: as §2

[9] = system: neutrophil accumulation in BALF of LPS-challenged BALB/cJ mice; experiment: LPS-induced pulmonary neutrophilia; format: in vivo, mouse (BALB/cJ); conditions: 200 mg/kg intraperitoneally 2 h prior LPS, BALF 24 h after LPS
Experimental: Vehicle, azithromycin, and compound 4 were administered intraperitoneally at a dose of 200 mg/kg (b.w.) to 10-week-old male BALB/cJ mice (Charles River, Lyon, France) 2 h before intranasal challenge with 2 μg of LPS from E. coli. Then, 24 h after LPS application animals were euthanized and bronchoalveolar lavage was performed. Total number of cells in BALF was counted with a hematological analyzer (Sysmex SF 3000, Sysmex Corp., Kobe, Japan). Percentages of neutrophils were determined by morphological examination of at least 200 cells on smears prepared by cytocentrifugation (Cytospin-3, Thermo Fisher Scientific Inc, Waltham, MA, USA) and stained with Kwik-Diff staining set (Thermo Fisher Scientific Inc., USA).
All values are presented as means ± S.E.M. To define statistically significant differences in cell numbers among vehicle-treated and macrolide-treated mice the data were subjected to one-way ANOVA followed by Dunnett’s Multiple Comparison Test using GraphPad Prism version 5.00 for Windows (GraphPad Software, San Diego, CA, USA). The level of significance was set at p < 0.05 in all cases.

Pharmacokinetics in dog = format: in vivo, Beagle dogs
recombinant human CYP2C9 = target: T1, recombinant human CYP2C9 (Homo sapiens, UniProt P11712); experiment: In vitro cytochrome inhibition; format: in vitro ADME; conditions: recombinant human CYP, fluorescent probe; read-out: IC50 inhibition of cytochrome 2C9
T1 construct: purchased Cypex
T1 sequence (P11712 whole entry): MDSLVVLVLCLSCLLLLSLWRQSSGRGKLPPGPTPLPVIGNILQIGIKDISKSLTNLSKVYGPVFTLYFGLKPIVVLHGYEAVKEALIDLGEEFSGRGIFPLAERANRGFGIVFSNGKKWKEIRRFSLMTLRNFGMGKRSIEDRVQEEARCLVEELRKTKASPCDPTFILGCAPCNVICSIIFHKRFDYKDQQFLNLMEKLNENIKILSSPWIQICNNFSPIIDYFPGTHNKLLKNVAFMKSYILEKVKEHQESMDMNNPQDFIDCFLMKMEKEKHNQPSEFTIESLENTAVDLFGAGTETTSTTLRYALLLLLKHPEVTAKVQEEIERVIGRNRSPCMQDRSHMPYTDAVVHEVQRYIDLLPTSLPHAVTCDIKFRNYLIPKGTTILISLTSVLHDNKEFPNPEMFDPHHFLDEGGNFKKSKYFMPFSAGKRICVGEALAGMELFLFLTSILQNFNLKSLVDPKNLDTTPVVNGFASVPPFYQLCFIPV
Experimental: (§3) Test compounds were incubated using a concentration range from 0.1 to 100 µM with recombinant human CYP1A2, 2C9, 2C19, 2D6 and 3A4 (Cypex). The compounds were preincubated at 37 °C for 5 or 10 min with the CYP enzyme isoforms, in the presence of 50 mM phosphate buffer (pH 7.4) and fluorescent probes. The incubations were started by addition of a cofactor solution containing NADP, glucose 6-phosphate and glucose 6-phosphate dehydrogenase. The plates were incubated for 10 min at 37 °C reading the fluorescence signal on a plate reader throughout. The fluorescence data were then used to calculate the IC50 values for each compound.

recombinant human CYP1A2 = target: T2, recombinant human CYP1A2 (Homo sapiens, UniProt P05177); experiment: In vitro cytochrome inhibition; format: in vitro ADME; conditions: recombinant human CYP, fluorescent probe; read-out: IC50 inhibition of cytochrome 1A2
T2 construct: purchased Cypex
T2 sequence (P05177 1-516): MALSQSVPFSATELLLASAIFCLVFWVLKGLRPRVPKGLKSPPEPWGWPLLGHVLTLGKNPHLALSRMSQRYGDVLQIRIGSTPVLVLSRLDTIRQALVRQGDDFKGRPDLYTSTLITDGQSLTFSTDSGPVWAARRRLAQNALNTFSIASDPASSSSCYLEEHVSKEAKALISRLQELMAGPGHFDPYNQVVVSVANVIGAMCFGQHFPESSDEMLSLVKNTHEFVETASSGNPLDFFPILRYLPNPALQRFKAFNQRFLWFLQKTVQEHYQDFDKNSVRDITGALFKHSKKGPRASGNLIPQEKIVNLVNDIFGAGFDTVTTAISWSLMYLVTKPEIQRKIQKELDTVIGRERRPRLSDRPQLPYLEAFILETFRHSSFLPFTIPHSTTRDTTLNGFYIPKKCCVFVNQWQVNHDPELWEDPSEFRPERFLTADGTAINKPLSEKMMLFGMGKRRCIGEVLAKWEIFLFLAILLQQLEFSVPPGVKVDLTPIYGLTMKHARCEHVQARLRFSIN
Experimental: as §3

[10] = target: T3, recombinant human CYP2C19 (Homo sapiens, UniProt P33261); experiment: In vitro cytochrome inhibition; format: in vitro ADME; conditions: recombinant human CYP, fluorescent probe; read-out: IC50 inhibition of cytochrome 2C19
T3 construct: purchased Cypex
T3 sequence (P33261 whole entry): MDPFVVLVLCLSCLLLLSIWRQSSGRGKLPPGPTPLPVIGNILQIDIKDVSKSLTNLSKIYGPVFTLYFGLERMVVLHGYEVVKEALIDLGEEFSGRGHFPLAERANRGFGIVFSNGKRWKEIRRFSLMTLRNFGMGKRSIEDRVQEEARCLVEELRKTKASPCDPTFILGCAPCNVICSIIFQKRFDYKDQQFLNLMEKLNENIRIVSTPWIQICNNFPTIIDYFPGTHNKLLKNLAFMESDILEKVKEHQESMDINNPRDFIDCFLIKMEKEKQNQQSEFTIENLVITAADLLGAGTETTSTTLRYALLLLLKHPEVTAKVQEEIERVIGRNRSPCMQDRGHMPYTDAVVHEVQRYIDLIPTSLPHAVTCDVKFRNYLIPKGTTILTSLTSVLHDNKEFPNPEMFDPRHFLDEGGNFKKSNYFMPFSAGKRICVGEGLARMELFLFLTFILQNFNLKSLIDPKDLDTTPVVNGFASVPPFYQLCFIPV
Experimental: as §3

recombinant human CYP2D6 = target: T4, recombinant human CYP2D6 (Homo sapiens, UniProt P10635); experiment: In vitro cytochrome inhibition; format: in vitro ADME; conditions: recombinant human CYP, fluorescent probe; read-out: IC50 inhibition of cytochrome 2D6
T4 construct: purchased Cypex
T4 sequence (P10635 whole entry): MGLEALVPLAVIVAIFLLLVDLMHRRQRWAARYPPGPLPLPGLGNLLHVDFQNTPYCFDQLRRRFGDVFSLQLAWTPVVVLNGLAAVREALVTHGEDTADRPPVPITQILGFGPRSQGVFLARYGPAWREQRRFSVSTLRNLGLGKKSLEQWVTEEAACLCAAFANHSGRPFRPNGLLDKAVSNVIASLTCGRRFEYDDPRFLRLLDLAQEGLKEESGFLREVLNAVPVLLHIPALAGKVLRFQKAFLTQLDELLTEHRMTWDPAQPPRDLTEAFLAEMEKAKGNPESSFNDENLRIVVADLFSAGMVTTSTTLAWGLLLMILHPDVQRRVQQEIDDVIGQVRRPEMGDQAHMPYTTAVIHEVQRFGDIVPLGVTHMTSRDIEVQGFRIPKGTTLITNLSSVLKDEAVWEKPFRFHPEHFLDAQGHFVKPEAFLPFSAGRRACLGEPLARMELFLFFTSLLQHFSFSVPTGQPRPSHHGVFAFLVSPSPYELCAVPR
Experimental: as §3

recombinant human CYP3A4 = target: T5, recombinant human CYP3A4 (Homo sapiens, UniProt P08684); experiment: In vitro cytochrome inhibition; format: in vitro ADME; conditions: recombinant human CYP, fluorescent probe; read-out: IC50 inhibition of cytochrome 3A4
T5 construct: purchased Cypex
T5 sequence (P08684 whole entry): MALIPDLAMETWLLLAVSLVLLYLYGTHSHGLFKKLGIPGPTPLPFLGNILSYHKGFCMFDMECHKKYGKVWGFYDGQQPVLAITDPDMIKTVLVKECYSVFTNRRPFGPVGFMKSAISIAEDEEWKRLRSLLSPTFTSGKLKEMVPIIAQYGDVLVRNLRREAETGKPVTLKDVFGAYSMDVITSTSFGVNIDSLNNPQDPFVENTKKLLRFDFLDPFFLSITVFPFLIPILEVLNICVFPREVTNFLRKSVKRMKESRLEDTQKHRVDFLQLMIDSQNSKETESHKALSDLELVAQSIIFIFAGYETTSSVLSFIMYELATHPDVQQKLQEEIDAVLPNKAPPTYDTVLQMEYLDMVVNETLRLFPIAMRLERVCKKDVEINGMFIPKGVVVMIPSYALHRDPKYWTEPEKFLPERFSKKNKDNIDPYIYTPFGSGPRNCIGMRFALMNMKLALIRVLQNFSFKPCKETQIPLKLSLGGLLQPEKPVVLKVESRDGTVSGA
Experimental: as §3

SMILES	MIC [1] [µg/mL]	MIC [2] [µg/mL]	MIC [3] [µg/mL]	MIC [4] [µg/mL]	MIC [5] [µg/mL]	MIC [6] [µg/mL]	Neutrophil accumulation in BALF after cigarette-smoke challenge [7]	other results
CC[C@H]1OC(=O)[C@H](C)[C@@H](O[C@H]2C[C@@](C)(OC)[C@@H](O)[C@H](C)O2)[C@H](C)[C@@H](O[C@@H]2O[C@H](C)C[C@H](N(C)C)[C@H]2O)[C@](C)(O)C[C@@H](C)CN(C)[C@H](C)[C@@H](O)[C@]1(C)O [AZM, azithromycin]	2 (≈ 2.67 µM)	0.5 (≈ 0.668 µM)	2 (≈ 2.67 µM)	< 0.125	< 0.125	< 0.125	dose-dependently inhibited the accumulation of neutrophils	–
CC[C@H]1OC(=O)[C@H](C)[C@@H](O[C@H]2C[C@@](C)(OC)[C@@H](O)[C@H](C)O2)[C@H](C)[C@@H](O[C@H]2C[C@@H](N(C)C)C[C@@H](C)O2)[C@](C)(O)C[C@@H](C)CN(C)[C@H](C)[C@@H](O)[C@]1(C)O [compound 3, 2 ′-dehydroxy azithromycin]	> 64	> 64	> 64	64 (≈ 87.3 µM)	32 (≈ 43.7 µM)	16 (≈ 21.8 µM)	–	–
CC[C@H]1OC(=O)[C@H](C)[C@@H](O[C@H]2C[C@@](C)(OC)[C@@H](O)[C@@H](C)O2)[C@H](C)[C@@H](O[C@H]2C[C@@H](N(C)C)C[C@@H](C)O2)[C@](C)(O)C[C@@H](C)CN(C)[C@H](C)[C@@H](O)[C@]1(C)O [compound 4, 2′-dehydroxy-5″-epi-azithromycin]	> 64	> 64	> 64	> 64	> 64	> 64	dose-dependently inhibited the accumulation of neutrophils	systemic clearance as % of liver blood flow [8]: ca. 4.6 % of liver blood flow; Oral F ([8]; 10 mg/kg p.o., 10 mg/kg): 12% and 12.4 ± 4.2%; half-life ([8]; male, Balb/c, whole blood): ~11 h; Vd ([8]; male, Balb/c, whole blood, intravenous, 2 mg/mg, read-out: Vss): 2 ± 0.8 L/kg; clearance ([8]; male, Balb/c, whole blood, iv, 2 mg/mg, blood): 4.1 ± 1.1 mL/min/kg; systemic clearance as % of liver blood flow (Pharmacokinetics in rat): ~17.1 % of liver blood flow; half-life (Pharmacokinetics in rat; Sprague-Dawley, whole blood): ~15 h; Vd (Pharmacokinetics in rat; Sprague-Dawley, whole blood, intravenous, 2 mg/mg, read-out: Vss): 11.7 ± 1.9 L/kg; clearance (Pharmacokinetics in rat; Sprague-Dawley, whole blood, iv, 2 mg/mg, blood): 14.5 ± 8.5 mL/min/kg; Neutrophil accumulation in BALF after intranasal LPS challenge [9]: inhibited neutrophil accumulation; Oral F (Pharmacokinetics in dog): 62% and 62 ± 10%; systemic clearance as % of liver blood flow (Pharmacokinetics in dog): ~18 % of liver blood flow; half-life (Pharmacokinetics in dog; beagle, in vivo): ~21 h; clearance (Pharmacokinetics in dog; beagle, in vivo, intravenous): 5.5 ± 0.9 mL/min/kg; Vd (Pharmacokinetics in dog; beagle, in vivo, intravenous, read-out: Vss): 6.9 ± 2 L/kg; IC50 (recombinant human CYP2C9): > 33 µM; IC50 (recombinant human CYP1A2): > 33 µM; IC50 [10]: > 33 µM; IC50 (recombinant human CYP2D6): > 33 µM; IC50 (recombinant human CYP3A4): > 33 µM
